These results are taken from US5086042A, “Peptides with sulfate ester groups” (Fisons Corporation, priority 1989, dated 1992).

Several values for one entry are separate records, joined by “and”; a condition that tells them apart may be missing. Identical values can stand only once. Non-standard residues stand in square brackets, D forms with d. Residues, ends and D or L forms follow the SMILES beside them. sY = N[C@@H](Cc1ccc(OS(=O)(=O)O)cc1)C(=O)O

The subject of this test is Male Sprague-Dawley rats. It counts as in vivo. Conditions: rat, intraperitoneal; for % FEEDING INHIBITION 0.5 hr (values marked *) / % FEEDING INHIBITION 0.5 hr / feeding inhibition during the 0.5 hour feeding period: 0.5 hr feeding period; for % FEEDING INHIBITION 0.5 hr / % FEEDING INHIBITION 3 hr: 30 μg/kg, vs saline controls; for % FEEDING INHIBITION 3 hr: IA means inactive; for feeding inhibition during the 0.5 hour feeding period: 0.3 μg/kg; for feeding inhibition during the 3 hour feeding period: 3 μg/kg. The protocol:
The peptides of this invention have the ability to inhibit feeding activity in mammals. As a result they have utility in the prevention and treatment of obesity.
Male Sprague-Dawley rats (weighing 300-350 g) are individually caged and maintained on a 12 hr. light, dark cycle and trained for at least 14 days to feed during a three hr period of the dark cycle but not the 21 hours preceding that three hr period. The day of the study, rats are dosed intraperitoneally with saline (controls) or test compound (dissolved in saline; usually at a concentration of 0.3 to 300 micrograms of test compound per kg of rat weight). Food is introduced 10 minutes after administration of saline or test compound. […] The % feeding inhibition for the 1/2 hr and 3 hr feeding periods obtained by administering a dose of 30 μg/kg of test compound is given in Table 2 for CCK-8 and various compounds of the invention. For example, the % feeding inhibition obtained with CCK-8 (first line of Table 2) was 70% for the 1/2 hr feeding period and 25% for the 3-hour period.

Where [1] appears, read: 300 μg/kg, <10% inhibition at 30 μg/kg.

In the case of `CNC(=O)[C@H](Cc1ccccc1)NC(=O)[C@H](CC(=O)O)NC(=O)[C@H](CCSC)NC(=O)[C@H](Cc1c[nH]c2ccccc12)NC(=O)CNC(=O)[C@H](CCSC)NC(=O)[C@H](Cc1ccc(OS(=O)(=O)O)cc1)NC(=O)[C@@H](N)CC(=O)O` [H-Asp-Tyr(SO 3 H)-Met-Gly-Trp-Met-Asp-Phe-NHMe], the “% FEEDING INHIBITION 0.5 hr (values marked *)” value under setting [1] stood at 13%.

Consider `CSCC[C@H](NC(=O)[C@H](Cc1ccc(OS(=O)(=O)O)cc1)NC(=O)[C@H](N)CC(=O)O)C(=O)NCC(=O)N[C@@H](Cc1c[nH]c2ccccc12)C(=O)N[C@@H](CCSC)C(=O)N[C@@H](CC(=O)O)C(=O)N[C@@H](Cc1ccccc1)C(N)=O` [H-DAsp-Tyr(SO3 H)-Met-Gly-Trp-Met-Asp-Phe-NH2], for which the “% FEEDING INHIBITION 0.5 hr” value is on record as 99%. The “% FEEDING INHIBITION 3 hr” value (3 hr feeding period) came out at 40%.

With `CSCC[C@H](NC(=O)[C@H](Cc1c[nH]c2ccccc12)NC(=O)CNC(=O)[C@H](CCSC)NC(=O)[C@@H](N)Cc1ccc(OS(=O)(=O)O)cc1)C(=O)N[C@@H](CC(=O)O)C(=O)N[C@@H](Cc1ccccc1)C(N)=O` [H-Try(SO3 H)-Met-Gly-Trp-Met-Asp-Phe-NH2, H-Tyr(SO3 H)-Met-Gly-Trp-Met-Asp-Phe-NH2] (HELM PEPTIDE1{[N[C@@H](Cc1ccc(OS(=O)(=O)O)cc1)C(=O)[*:2]].M.G.W.M.D.F.[am]}$$$$V2.0), the “% FEEDING INHIBITION 0.5 hr” value came to 50%. The “% FEEDING INHIBITION 3 hr (values marked *)” value (300 μg/kg, 3 hr feeding period, <10% inhibition at 30 μg/kg) amounted to 30%.

As to `CSCC[C@H](NC(=O)[C@H](Cc1ccc(OS(=O)(=O)O)cc1)NC(=O)C[C@H](N)C(=O)O)C(=O)NCC(=O)N[C@@H](Cc1c[nH]c2ccccc12)C(=O)N[C@@H](CCSC)C(=O)N[C@@H](CC(=O)O)C(=O)N[C@@H](Cc1ccccc1)C(N)=O` [H-βAsp-Tyr(SO3 H)-Met-Gly-Trp-Met-Asp-Phe-NH2], the “% FEEDING INHIBITION 0.5 hr” value was found to be 91%. For the same compound, the “% FEEDING INHIBITION 3 hr” value (3 hr feeding period) was 21%.

As for `CC[C@H](C)[C@H](NC(=O)[C@H](Cc1ccc(OS(=O)(=O)O)cc1)NC(=O)CCC(=O)O)C(=O)NCC(=O)N[C@@H](Cc1c[nH]c2ccccc12)C(=O)N[C@H](C(=O)N[C@@H](CC(=O)O)C(=O)N[C@@H](Cc1ccccc1)C(N)=O)[C@@H](C)CC` [Suc-Tyr(SO3 H)-Ile-Gly-Trp-Ile-Asp-Phe-NH2] (HELM PEPTIDE1{[O=C(O)CCC(=O)[*:2]].[O=C([C@H](Cc1ccc(OS(=O)(=O)O)cc1)N[*:1])[*:2]].I.G.W.I.D.F.[am]}$$$$V2.0), the “% FEEDING INHIBITION 0.5 hr” value worked out at 73%. Besides, for the setting “3 hr feeding period”, the “% FEEDING INHIBITION 3 hr” value turned out to be 54%.

On to `CSCC[C@H](NC(=O)[C@H](Cc1c[nH]c2ccccc12)NC(=O)[C@@H](C)NC(=O)[C@H](CCSC)NC(=O)[C@H](Cc1ccc(OS(=O)(=O)O)cc1)NC(=O)CCC(=O)O)C(=O)N[C@@H](CC(=O)O)C(=O)N[C@@H](Cc1ccccc1)C(N)=O` [Suc-Tyr(SO3 H)-Met-DAla-Trp-Met-Asp-Phe-NH2] (HELM PEPTIDE1{[O=C(O)CCC(=O)[*:2]].[O=C([C@H](Cc1ccc(OS(=O)(=O)O)cc1)N[*:1])[*:2]].M.[dA].W.M.D.F.[am]}$$$$V2.0), for which the “% FEEDING INHIBITION 0.5 hr” value stood at 75%. For the setting “3 hr feeding period”, the “% FEEDING INHIBITION 3 hr” value amounted to 30%.

Take `CSCC[C@H](NC(=O)[C@H](Cc1ccc(OS(=O)(=O)O)cc1)NC(=O)CCC(=O)O)C(=O)NCC(=O)N[C@@H](Cc1c[nH]c2ccccc12)C(=O)N[C@@H](CCSC)C(=O)N[C@@H](CC(=O)O)C(=O)N[C@@H](Cc1ccccc1)C(N)=O` [Suc-Tyr(SO3 H)-Met-Gly-Trp-Met-Asp-Phe-NH2] (HELM PEPTIDE1{[O=C(O)CCC(=O)[*:2]].[O=C([C@H](Cc1ccc(OS(=O)(=O)O)cc1)N[*:1])[*:2]].M.G.W.M.D.F.[am]}$$$$V2.0): the “% FEEDING INHIBITION 0.5 hr” value was 75%. The “% FEEDING INHIBITION 3 hr” value (3 hr feeding period) is on record as 55%.

Regarding “H-Asp-Tyr(SO3 H)-Ahx-Gly-Trp-Ahx-Asp-Phe-NH2”, the “% FEEDING INHIBITION 0.5 hr” value was 82%. In addition, for the setting “3 hr feeding period”, the “% FEEDING INHIBITION 3 hr” value stood at 27%.

Take “H-Asp-Tyr(SO3 H)-Met-Gly-Trp-Ahx-Asp-Phe-NH2”: the “% FEEDING INHIBITION 0.5 hr” value turned out to be 82%. The “% FEEDING INHIBITION 3 hr” value (3 hr feeding period) is given as 23%.

As for “H-Asp-Tyr(SO3 H)-Met-Gly-Trp-Met-Asp-Tyr-NH2 (H-D[sY]MGWMDY-NH2; not fully specified)”, the “% FEEDING INHIBITION 0.5 hr (values marked *)” value under setting [1] turned out to be 23%.

Hpp(SO3 H)-Ahx-Gly-Trp-Ahx-Asp-Phe-NH2: the “feeding inhibition during the 0.5 hour feeding period” value is recorded as 20-72% and the “% FEEDING INHIBITION 0.5 hr” value is 100%. In addition, under “3 hr feeding period”, the “feeding inhibition during the 3 hour feeding period” value is 50-90% and the “% FEEDING INHIBITION 3 hr” value is on record as 99%.

For “Hpp(SO3 sH)-Ahx-Gly-Trp-Ahx-Asp-MePhe-NH2 [Hpp(SO3 H)-Ahx-Gly-Trp-Ahx-Asp-MePhe-NH2]”, the “feeding inhibition during the 0.5 hour feeding period” value is 20-72% and the “% FEEDING INHIBITION 0.5 hr” value is given as 94%. In addition, where the note is “3 hr feeding period”, the “feeding inhibition during the 3 hour feeding period” value is given as 50-90% and the “% FEEDING INHIBITION 3 hr” value is on record as 96%.

For the compound “Hpp(SO3 sH)-Ile-Gly-Trp-Ahx-Asp-MePhe-NH2 [Hpp(SO3 H)-Ile-Gly-Trp-Ahx-Asp-MePhe-NH2]”, the “feeding inhibition during the 0.5 hour feeding period” value is reported as 20-72% and the “% FEEDING INHIBITION 0.5 hr” value stood at 98%. Moreover, under “3 hr feeding period”, the “feeding inhibition during the 3 hour feeding period” value was 50-90% and the “% FEEDING INHIBITION 3 hr” value was 100%.

Consider “Suc-Tyr(SO3 H)-Ahx-Gly-Trp-Ahx-Asp-Phe-NH2”, for which the “feeding inhibition during the 0.5 hour feeding period” value is listed as 20-72% and the “% FEEDING INHIBITION 0.5 hr” value is 100%. Also, where the note is “3 hr feeding period”, the “feeding inhibition during the 3 hour feeding period” value was 50-90% and the “% FEEDING INHIBITION 3 hr” value is reported as 97%.

Take “Suc-Tyr(SO3 H)-Ile-Gly-Trp-Ahx-Asp-MePhe-NH2”: the “feeding inhibition during the 0.5 hour feeding period” value is 20-72% and the “% FEEDING INHIBITION 0.5 hr” value stood at 100%. For the setting “3 hr feeding period”, the “feeding inhibition during the 3 hour feeding period” value is 50-90% and 90%; the “% FEEDING INHIBITION 3 hr” value was 100%.

In the case of “Suc-Tyr(SO3 ° H)-Ahx-Gly-Trp-Ahx-Asp-MePhe-NH2”, the “feeding inhibition during the 0.5 hour feeding period” value was 20-72% and the “% FEEDING INHIBITION 0.5 hr” value stood at 100%. In addition, where the note is “3 hr feeding period”, the “feeding inhibition during the 3 hour feeding period” value is recorded as 50-90% and the “% FEEDING INHIBITION 3 hr” value was 98%.

Consider “iBuOCO-Tyr(SO3 H)-Ahx-Gly-Trp-Ahx-Asp-MePhe-NH2”, for which the “feeding inhibition during the 0.5 hour feeding period” value is reported as 20-72% and the “% FEEDING INHIBITION 0.5 hr” value came out at 100%. Where the note is “3 hr feeding period”, the “feeding inhibition during the 3 hour feeding period” value is given as 50-90% and the “% FEEDING INHIBITION 3 hr” value is 100%.

Regarding “iBuOCO-Tyr(SO3 H)-Ahx-Gly-Trp-Ahx-Asp-Phe-NH2”, the “feeding inhibition during the 0.5 hour feeding period” value is on record as 20-72% and the “% FEEDING INHIBITION 0.5 hr” value amounted to 100%. In addition, where the note is “3 hr feeding period”, the “feeding inhibition during the 3 hour feeding period” value is 50-90% and the “% FEEDING INHIBITION 3 hr” value is on record as 100%.
